Among the data in patent publication US20260325533A1, “CDK INHIBITOR COMPOUNDS” (ALEKSIA THERAPEUTICS, INC., priority 2023, published 2026) are IC50 values, retold here.

What all share (type): biochemical
One assay has as its target CDK2/CCNE1 (Homo sapiens, UniProt P24941). As to the kind of experiment: CDK2 homogeneous time-resolved fluorescence (HTRF) kinase assay. As to conditions: CDK2/CCNE. The gist of the method: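 An HTRF format measures CDK2/CCNE1 (3 nM) phosphorylating a 4E-BP1 Thr37/46 peptide at high (1 mM) ATP. Reactions run one hour at 23 °C, then EDTA-quenched and probed with Eu-labelled phospho-specific antibody.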
Background: Time-resolved FRET reads energy transfer from a long-lived donor to a nearby acceptor.

The target of another assay is CDK6/CCND1 (Homo sapiens, UniProt Q00534). As to the kind of experiment: CDK6 homogeneous time-resolved fluorescence (HTRF) kinase assay. As to conditions: CDK6/CCND. The gist of the method:
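Assay conditions: HEPES buffer containing 10 mM MgCl2, 1 mM EGTA, 2 mM DTT, 0.01% Tween 20; 1 nM CDK6/CCND1, 50 nM peptide substrate, 1 mM ATP. Detection after 60 min reaction used 2 nM europium antibody with 340 nm excitation. Potency fitted from half-log series, 11 points.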

For the next assay, the target named is CDK1/CCNB1 (Homo sapiens, UniProt P06493). As to the kind of experiment: CDK1 homogeneous time-resolved fluorescence (HTRF) kinase assay. As to conditions: CDK1/CCNB. A digest of the protocol:
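Kinase activity is measured as Lance signal (665 nm, or 665/615 nm ratio) from europium-labelled anti-phospho-Thr37/46 antibody binding ULight-4E-BP1 peptide. Reactions contain 0.5 nM enzyme, 1 mM ATP, 1% DMSO and run 60 min at 23 °C before EDTA quench.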

The target of another assay is CDK4/CCND3 (Homo sapiens, UniProt P11802). Briefly: CDK4 homogeneous time-resolved fluorescence (HTRF) kinase assay. As to conditions: CDK4/CCND. A digest of the protocol:
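IC50s derive from Lance 665 nm or 665/615 nm signals in 11-point, half-log dose series (top 10 μM, 1% DMSO). The enzyme, 1.5 nM CDK4/CCND3, phosphorylates 50 nM ULight-4E-BP1 peptide with 1 mM ATP over 60 min at 23 °C.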

Setting [1] is: 25-250 nM marked x, read-out: CDK2/CCNE IC50 25-250 nM.
Setting [2] is: 25-250 nM marked x, read-out: CDK6/CCND IC50 25-250 nM.
Setting [3] is: 25-250 nM marked x, read-out: CDK1/CCNB IC50 25-250 nM.
Setting [4] is: 25-250 nM marked x, read-out: CDK4/CCND IC50 25-250 nM.
Where [5] appears, read: <25 nM, read-out: CDK2/CCNE IC50 <25 nM.
Where [6] appears, read: <25 nM, read-out: CDK6/CCND IC50 <25 nM.
The mark [7] stands for this setting: >250 nM marked x, read-out: CDK1/CCNB IC50 >250 nM.
Where [8] appears, read: <25 nM, read-out: CDK4/CCND IC50 <25 nM.
Setting [9] is: >250 nM marked x, read-out: CDK6/CCND IC50 >250 nM.
[10] abbreviates: >250 nM marked x, read-out: CDK4/CCND IC50 >250 nM.

pIC50: −log10 of the molar value. Where two headings read alike, the source gives them in different places.

CDK4/CCND3, sequence (P11802 whole entry): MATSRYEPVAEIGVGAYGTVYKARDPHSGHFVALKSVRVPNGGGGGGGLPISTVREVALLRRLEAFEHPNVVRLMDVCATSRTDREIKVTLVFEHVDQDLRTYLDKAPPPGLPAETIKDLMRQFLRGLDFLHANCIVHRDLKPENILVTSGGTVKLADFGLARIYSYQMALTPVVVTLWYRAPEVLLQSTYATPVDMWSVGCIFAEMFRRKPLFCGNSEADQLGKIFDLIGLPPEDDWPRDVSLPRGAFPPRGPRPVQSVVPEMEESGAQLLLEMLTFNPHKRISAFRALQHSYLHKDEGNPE
CDK4/CCND3, sequence (P30281 whole entry partner): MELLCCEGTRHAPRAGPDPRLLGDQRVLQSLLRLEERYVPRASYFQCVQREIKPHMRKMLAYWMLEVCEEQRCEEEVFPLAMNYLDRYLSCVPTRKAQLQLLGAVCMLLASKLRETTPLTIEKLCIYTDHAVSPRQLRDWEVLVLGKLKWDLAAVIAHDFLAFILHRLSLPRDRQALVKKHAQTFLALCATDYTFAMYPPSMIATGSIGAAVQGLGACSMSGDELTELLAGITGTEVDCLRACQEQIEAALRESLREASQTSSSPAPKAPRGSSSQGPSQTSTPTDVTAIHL
CDK6/CCND1, sequence (Q00534 whole entry): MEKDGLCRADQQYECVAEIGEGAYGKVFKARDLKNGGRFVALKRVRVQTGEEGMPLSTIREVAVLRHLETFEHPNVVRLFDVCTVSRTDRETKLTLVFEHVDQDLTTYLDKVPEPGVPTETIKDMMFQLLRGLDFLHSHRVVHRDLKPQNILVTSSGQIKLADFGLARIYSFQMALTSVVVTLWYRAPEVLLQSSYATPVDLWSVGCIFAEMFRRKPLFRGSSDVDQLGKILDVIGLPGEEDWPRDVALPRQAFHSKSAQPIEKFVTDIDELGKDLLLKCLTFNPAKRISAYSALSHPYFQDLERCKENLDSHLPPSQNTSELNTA
CDK6/CCND1, sequence (P24385 whole entry partner): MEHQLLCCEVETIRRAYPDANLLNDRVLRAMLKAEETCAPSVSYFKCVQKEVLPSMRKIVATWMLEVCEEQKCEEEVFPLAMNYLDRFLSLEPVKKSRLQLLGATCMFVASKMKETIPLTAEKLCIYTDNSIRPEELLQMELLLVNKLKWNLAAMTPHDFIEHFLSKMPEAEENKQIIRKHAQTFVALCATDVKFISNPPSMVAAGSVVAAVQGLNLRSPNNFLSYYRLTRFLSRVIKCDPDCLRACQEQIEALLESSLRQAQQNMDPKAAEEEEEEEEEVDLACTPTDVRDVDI
CDK1/CCNB1, sequence (P06493 whole entry): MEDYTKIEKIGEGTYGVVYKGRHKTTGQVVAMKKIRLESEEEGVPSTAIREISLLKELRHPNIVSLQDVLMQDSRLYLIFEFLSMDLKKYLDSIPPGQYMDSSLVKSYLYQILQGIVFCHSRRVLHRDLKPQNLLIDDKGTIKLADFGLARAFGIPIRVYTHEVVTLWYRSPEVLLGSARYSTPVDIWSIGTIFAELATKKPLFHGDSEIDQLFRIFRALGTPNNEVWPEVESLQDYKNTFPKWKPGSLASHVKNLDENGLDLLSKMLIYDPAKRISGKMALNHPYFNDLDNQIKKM
CDK1/CCNB1, sequence (P14635 whole entry partner): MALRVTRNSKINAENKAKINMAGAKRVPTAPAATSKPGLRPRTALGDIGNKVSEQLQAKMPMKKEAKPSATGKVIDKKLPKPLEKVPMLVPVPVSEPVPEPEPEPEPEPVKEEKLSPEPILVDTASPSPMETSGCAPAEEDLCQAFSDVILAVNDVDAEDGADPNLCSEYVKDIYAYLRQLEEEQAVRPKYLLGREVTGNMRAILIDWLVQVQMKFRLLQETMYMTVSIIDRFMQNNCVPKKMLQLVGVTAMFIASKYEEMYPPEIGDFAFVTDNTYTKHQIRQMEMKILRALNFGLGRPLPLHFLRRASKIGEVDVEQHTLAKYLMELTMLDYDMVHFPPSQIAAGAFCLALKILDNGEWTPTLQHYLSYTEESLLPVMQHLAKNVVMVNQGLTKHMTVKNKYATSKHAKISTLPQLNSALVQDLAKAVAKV

Take `CN(CCO)C(=O)c1nccc2cnc(NC3CCN(S(C)(=O)=O)CC3)cc12` [Ex 96, N-(2-hydroxyethyl)-N-methyl-7-((1-(methylsulfonyl)piperidin-4-yl)amino)-2,6-naphthyridine-1-carboxamide]: the pIC50 on CDK2/CCNE1 (setting [1]), at CDK6/CCND1 (setting [2]), at CDK1/CCNB1 (setting [3]) and at CDK4/CCND3 (setting [4]) was 6.60 to 7.60 in each case.

Consider `Oc1ccc(Nc2cc3c(C4=CCCCC4)nccc3cn2)cc1` [Ex 99, 4-((5-(cyclohex-1-en-1-yl)-2,6-naphthyridin-3-yl)amino)phenol], for which the pIC50 at CDK2/CCNE1 (setting [5]) is greater than 7.60; on CDK6/CCND1 (setting [6]) it was greater than 7.60; on CDK1/CCNB1 (setting [3]) it was 6.60 to 7.60; on CDK4/CCND3 (setting [4]) it was 6.60 to 7.60.

Take `Oc1cccc(Nc2cc3c(C4=CCCCC4)nccc3cn2)c1` [Ex 100, 3-((5-(cyclohex-1-en-1-yl)-2,6-naphthyridin-3-yl)amino)phenol]: the pIC50 at CDK2/CCNE1 (setting [5]) was greater than 7.60; at CDK6/CCND1 (setting [6]) it was greater than 7.60; at CDK1/CCNB1 (setting [7]), less than 6.60; at CDK4/CCND3 (setting [4]) it was 6.60 to 7.60.

For `CS(=O)(=O)N1CCC(Nc2cc3c(C4=CCCCC4)nccc3cn2)CC1` [Ex 102, 5-(cyclohex-1-en-1-yl)-N-(1-(methylsulfonyl)piperidin-4-yl)-2,6-naphthyridin-3-amine], the pIC50 at CDK2/CCNE1 (setting [5]) is greater than 7.60; on CDK6/CCND1 (setting [6]), greater than 7.60; at CDK1/CCNB1 (setting [3]), 6.60 to 7.60; on CDK4/CCND3 (setting [8]) it was greater than 7.60.

Take `C=CS(=O)(=O)N1CCC(Nc2cc3c(N4CCC(C5CCN(C)CC5)CC4)nccc3cn2)CC1` [Ex 103, 5-(1'-methyl-[4,4'-bipiperidin]-1-yl)-N-(1-(vinylsulfonyl)piperidin-4-yl)-2,6-naphthyridin-3-amine]: the pIC50 on CDK2/CCNE1 (setting [1]) is 6.60 to 7.60; on CDK6/CCND1 (setting [2]) it was 6.60 to 7.60; on CDK1/CCNB1 (setting [7]), less than 6.60; on CDK4/CCND3 (setting [4]) it was 6.60 to 7.60.

`C=CS(=O)(=O)N1CCC(Nc2cc3c(N4CCC(C#N)CC4)nccc3cn2)CC1` [Ex 106, 1-(7-((1-(vinylsulfonyl)piperidin-4-yl)amino)-2,6-naphthyridin-1-yl)piperidine-4-carbonitrile]: the pIC50 was greater than 7.60 on CDK2/CCNE1 (setting [5]), 6.60 to 7.60 on CDK6/CCND1 (setting [2]), 6.60 to 7.60 at CDK1/CCNB1 (setting [3]) and 6.60 to 7.60 on CDK4/CCND3 (setting [4]).

As for `C=CS(=O)(=O)N1CCC(Nc2cc3c(-c4ccncc4C)nccc3cn2)CC1` [Ex 107, 5-(3-methylpyridin-4-yl)-N-(1-(vinylsulfonyl)piperidin-4-yl)-2,6-naphthyridin-3-amine], the pIC50 at CDK2/CCNE1 (setting [5]) was greater than 7.60; on CDK6/CCND1 (setting [2]), 6.60 to 7.60; on CDK1/CCNB1 (setting [7]), less than 6.60; at CDK4/CCND3 (setting [4]) it was 6.60 to 7.60.

Consider `O=C(ON1C(=O)CCC1=O)c1ccc(Nc2cc3c(C4=CCCCC4)nccc3cn2)cc1` [Ex 113, 2,5-dioxopyrrolidin-1-yl 4-((5-(cyclohex-1-en-1-yl)-2,6-naphthyridin-3-yl)amino)benzoate], for which the pIC50 was greater than 7.60 on CDK2/CCNE1 (setting [5]); 6.60 to 7.60 on CDK6/CCND1 (setting [2]); greater than 7.60 at CDK1/CCNB1 (<25 nM, read-out: CDK1/CCNB IC50 <25 nM); 6.60 to 7.60 on CDK4/CCND3 (setting [4]).

For the molecule `Cc1c(-c2nccc3cnc(NC4CCN(S(C)(=O)=O)CC4)cc23)ccc2[nH]ncc12` [Ex 116, 5-(4-methyl-1H-indazol-5-yl)-N-(1-(methylsulfonyl)piperidin-4-yl)-2,6-naphthyridin-3-amine], the pIC50 on CDK2/CCNE1 (setting [5]) was greater than 7.60; on CDK6/CCND1 (setting [6]), greater than 7.60; on CDK1/CCNB1 (setting [3]), 6.60 to 7.60; at CDK4/CCND3 (setting [8]), greater than 7.60.

Consider `Cc1cc2[nH]ncc2cc1-c1nccc2cnc(NC3CCN(S(C)(=O)=O)CC3)cc12` [Ex 117, 5-(6-methyl-1H-indazol-5-yl)-N-(1-(methylsulfonyl)piperidin-4-yl)-2,6-naphthyridin-3-amine], for which the pIC50 on CDK2/CCNE1 (setting [5]) was greater than 7.60; on CDK6/CCND1 (setting [6]), greater than 7.60; on CDK1/CCNB1 (setting [3]), 6.60 to 7.60; on CDK4/CCND3 (setting [8]) it was greater than 7.60.

For the molecule `C#Cc1nccc2cnc(Nc3ccc(S(C)(=O)=O)cc3)cc12` [Ex 124, 5-ethynyl-N-(4-(methylsulfonyl)phenyl)-2,6-naphthyridin-3-amine], the pIC50 was 6.60 to 7.60 at CDK2/CCNE1 (setting [1]), less than 6.60 on CDK6/CCND1 (setting [9]), less than 6.60 on CDK1/CCNB1 (setting [7]) and less than 6.60 on CDK4/CCND3 (setting [10]).

For `CS(=O)(=O)c1ccc(Nc2cc3c(C4=CCCCC4)nccc3cn2)cc1` [Ex 127, 5-(cyclohex-1-en-1-yl)-N-(4-(methylsulfonyl)phenyl)-2,6-naphthyridin-3-amine], the pIC50 on CDK2/CCNE1 (setting [5]) was greater than 7.60; on CDK6/CCND1 (setting [6]) it was greater than 7.60; on CDK1/CCNB1 (setting [3]), 6.60 to 7.60; on CDK4/CCND3 (setting [8]), greater than 7.60.

`CS(=O)(=O)c1ccc(Nc2cc3c(C#Cc4ccc(C#N)cc4)nccc3cn2)cc1` [Ex 129, 4-((7-((4-(methylsulfonyl)phenyl)amino)-2,6-naphthyridin-1-yl)ethynyl)benzonitrile]: the pIC50 is 6.60 to 7.60 at CDK2/CCNE1 (setting [1]), less than 6.60 on CDK6/CCND1 (setting [9]), less than 6.60 on CDK1/CCNB1 (setting [7]) and less than 6.60 on CDK4/CCND3 (setting [10]).

Turning to `CS(=O)(=O)c1ccc(Nc2cc3c(C#CCCO)nccc3cn2)cc1` [Ex 130, 4-(7-((4-(methylsulfonyl)phenyl)amino)-2,6-naphthyridin-1-yl)but-3-yn-1-ol], the pIC50 is greater than 7.60 at CDK2/CCNE1 (setting [5]), 6.60 to 7.60 at CDK6/CCND1 (setting [2]), 6.60 to 7.60 at CDK1/CCNB1 (setting [3]) and 6.60 to 7.60 on CDK4/CCND3 (setting [4]).

In the case of `C=CS(=O)(=O)c1ccc(Nc2cc3c(-c4ccc(C#N)cc4)nccc3cn2)cc1` [Ex 131, 4-(7-((4-(vinylsulfonyl)phenyl)amino)-2,6-naphthyridin-1-yl)benzonitrile], the pIC50 on CDK2/CCNE1 (setting [1]) is 6.60 to 7.60; on CDK6/CCND1 (setting [9]), less than 6.60; on CDK1/CCNB1 (setting [7]), less than 6.60; on CDK4/CCND3 (setting [10]), less than 6.60.

In the case of `C=CS(=O)(=O)c1ccc(Nc2cc3c(-c4cccc(C#N)c4)nccc3cn2)cc1` [Ex 136, 3-(7-((4-(vinylsulfonyl)phenyl)amino)-2,6-naphthyridin-1-yl)benzonitrile], the pIC50 was 6.60 to 7.60 at CDK2/CCNE1 (setting [1]), less than 6.60 on CDK6/CCND1 (setting [9]), less than 6.60 at CDK1/CCNB1 (setting [7]) and less than 6.60 on CDK4/CCND3 (setting [10]).

Consider `C=CS(=O)(=O)c1ccc(Nc2cc3c(-c4cccc(COC)c4)nccc3cn2)cc1` [Ex 137, 5-(3-(methoxymethyl)phenyl)-N-(4-(vinylsulfonyl)phenyl)-2,6-naphthyridin-3-amine], for which the pIC50 on CDK2/CCNE1 (setting [1]) was 6.60 to 7.60; on CDK6/CCND1 (setting [9]) it was less than 6.60; at CDK1/CCNB1 (setting [7]), less than 6.60; on CDK4/CCND3 (setting [10]) it was less than 6.60.

On to `CS(=O)(=O)c1ccc(Nc2cc3c(C#Cc4ccncc4)nccc3cn2)cc1` [Ex 138, N-(4-(methylsulfonyl)phenyl)-5-(pyridin-4-ylethynyl)-2,6-naphthyridin-3-amine], for which the pIC50 is greater than 7.60 at CDK2/CCNE1 (setting [5]), 6.60 to 7.60 on CDK6/CCND1 (setting [2]), less than 6.60 on CDK1/CCNB1 (setting [7]) and 6.60 to 7.60 on CDK4/CCND3 (setting [4]).

`CS(=O)(=O)c1ccc(Nc2cc3c(C4=NCCS4)nccc3cn2)cc1` [Ex 139, 5-(4,5-dihydrothiazol-2-yl)-N-(4-(methylsulfonyl)phenyl)-2,6-naphthyridin-3-amine]: the pIC50 on CDK2/CCNE1 (setting [5]) was greater than 7.60; at CDK6/CCND1 (setting [2]), 6.60 to 7.60; at CDK1/CCNB1 (setting [3]), 6.60 to 7.60; at CDK4/CCND3 (setting [4]) it was 6.60 to 7.60.

For the molecule `C=CS(=O)(=O)c1ccc(Nc2cc3c(-c4ccccc4OC(F)(F)F)nccc3cn2)cc1` [Ex 141, 5-(2-(trifluoromethoxy)phenyl)-N-(4-(vinylsulfonyl)phenyl)-2,6-naphthyridin-3-amine], the pIC50 on CDK2/CCNE1 (setting [1]) is 6.60 to 7.60; on CDK6/CCND1 (setting [9]), less than 6.60; on CDK1/CCNB1 (setting [7]), less than 6.60; at CDK4/CCND3 (setting [10]), less than 6.60.

Turning to `C=CS(=O)(=O)c1ccc(Nc2cc3c(-c4ccc5ocnc5c4)nccc3cn2)cc1` [Ex 145, 5-(benzo[d]oxazol-5-yl)-N-(4-(vinylsulfonyl)phenyl)-2,6-naphthyridin-3-amine], the pIC50 is 6.60 to 7.60 on CDK2/CCNE1 (setting [1]), less than 6.60 on CDK6/CCND1 (setting [9]), less than 6.60 at CDK1/CCNB1 (setting [7]) and less than 6.60 on CDK4/CCND3 (setting [10]).
